Data set [1] has as its target T1, rat brain kynureninase (Rattus norvegicus, UniProt P70712).
T1 construct: Partial purification of rat brain kynureninase was performed according to Lee et al; from tissue; host or cells: rat brain, partially purified enzyme
T1 sequence (P70712 1-464): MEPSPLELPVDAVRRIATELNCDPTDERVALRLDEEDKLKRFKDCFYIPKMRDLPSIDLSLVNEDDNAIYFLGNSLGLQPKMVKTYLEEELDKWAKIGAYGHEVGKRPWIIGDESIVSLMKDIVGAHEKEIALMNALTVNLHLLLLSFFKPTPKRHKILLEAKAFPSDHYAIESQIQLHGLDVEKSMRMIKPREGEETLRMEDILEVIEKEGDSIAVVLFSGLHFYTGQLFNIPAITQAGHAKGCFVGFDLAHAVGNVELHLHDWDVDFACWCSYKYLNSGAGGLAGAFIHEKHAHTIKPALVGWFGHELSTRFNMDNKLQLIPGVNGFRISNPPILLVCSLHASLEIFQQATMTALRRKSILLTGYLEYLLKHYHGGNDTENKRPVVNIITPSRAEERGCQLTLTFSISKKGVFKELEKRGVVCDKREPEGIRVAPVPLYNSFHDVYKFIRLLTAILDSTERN
Description: Kynureninase assay in the rat brain. Format: biochemical. The note with it: rat brain homogenate; for inhibition at 100 µM: read-out: % INHIBITION AT 100 μM Kyn-Ase. As for the experimental part:
Kynureninase assay in the rat brain
Partial purification of rat brain kynureninase was performed according to Lee et al., “Isolation and characterization of kynureninase from rat liver”, advances in Tryptophan Research, 431-434, 1992.
To perform rat brain kynureninase assay, a reaction mixture (final volume 0.2 ml) containing 100 mM tris-HCl, pH 8.0, […] pyridoxal phosphate, […] kynurenine, 20 μl of partially purified enzyme and 100 μM of inhibitor solution was prepared.
The reaction was carried out at 37° C. for 3 hours and then stopped by adding 50 μl of perchloric acid 2N. After centrifugation at 11000 rpm for 15 min., anthranilic acid in the supernatant was determined fluorimetrically in a HPLC system (as described for the liver method).

Data set [2] has as its target T2, kynurenine-3-hydroxylase (Rattus norvegicus, UniProt O88867).
T2 construct: Brain was homogenized in ice-cold 0.32 M sucrose and centrifugated at 12000×g; from tissue; host or cells: rat brain homogenate, washed pellet suspended
Put plainly: Kynurenine-3-hydroxylase assay in the rat brain. Format: biochemical. The note with it: rat brain homogenate; for inhibition at 100 µM: read-out: % INHIBITION AT 100 μM Kyn-3-OH-Ase; for IC50: read-out: IC50 Kyn-3-OH-Ase. On the procedure: Kynurenine-3-hydroxylase assay in the rat brain
Kynurenine-3-hydroxylase activity was quantified by the conversion of L-kynurenine to 3-hydroxykynurenine. Brain was homogenized in ice-cold 0.32 M sucrose and centrifugated at 12000×g, for 30 min at 4 C. The pellet was washed three times with 0.32 M sucrose by centrifugation and suspended in 0.14 M KCl in 20 mM K-phosphate buffer pH 7 (1 g tissue in 2 ml buffer).
The reaction mixture contained: 75 μl of suspended homogenate; 100 μl of substrate solution containing 50 mM K-phosphate buffer pH 7.5, 2 mM MgCl2, 0.4 mM NADPH and 50 μM L-kynurenine (final concentration); 25 μl of different concentrations of inhibitor solutions.
The reaction was stopped by addition of 200 μl of 1 M HClO4 after 60 min. incubation.
3-hydroxykynurenine formed was quantified by HPLC with coulometric detection (working voltage was +0.2 V). The column was a 10 cm C18 reversed phase (3 μm). The mobile phase consisted of 950 ml distilled water. 20 ml acetonitrile, 9 ml triethylamine, 5.9 ml phosphoric acid, 100 mg sodium EDTA and 1.5 g heptanesulfonic acid. The flow-rate was 1 ml/min.

For data set [3], the target named is T3, kynureninase (Rattus norvegicus, UniProt P70712).
T3 construct: from tissue; host or cells: rat liver homogenate
T3 sequence (P70712 1-464): T1 sequence (P70712 1-464)
Description: Kynureninase inhibition in rat liver homogenates. Format: biochemical. The note with it: rat liver homogenate; for inhibition at 1000 µM: 1 mM. On the procedure: The efficacy of the compounds of the invention in the inhibition of kynureninase has been evaluated in rat liver homogenates as described by, Takikawa O. et al. in J. Biol. Chem. 261 (8), 3648-3652 - 1986), with slight modifications.
HPLC method was essentially Takikawa's method, using the same Fluorimetric detection (ex. 313 nm, em. 420 nm) but changing the column (Nova-Pak C18 3.9×300 mm) and the mobile phase (phosphate buffer 80 mM, 13% CH.CN pH 2.5).

The target in data set [4] is T2, kynurenine-3-hydroxylase. Put plainly: Kynurenine-3-hydroxylase assay in the rat liver. The note with it: rat liver homogenate. Format: biochemical. As for the experimental part:
Kynurenine-3-hydroxylase assay in the rat liver
Rat liver is homogenized in cold 0.32 M sucrose.
The homogenates are centrifuged at 12000×rpm for 30 minutes at 4° C. The precipitate, after having been washed three times with 0.32 M sucrose by means of centrifugation (12000×rpm for 30 min), is resuspended in 20 mM K-buffer+0.14 M KCl at pH 7 (1 g of liver in 6.5 ml ).
The reaction at 37° C. is terminated by the addition of 200 μl of […] after 10 minutes of incubation.
The concentrations of 3-hydroxy-kynurenine, produced in the absence or presence of the tested molecules are determined by HPLC with coulometric detection (pot. +0.20 V), using for the separation a reversed phase column C18, 10 cm long and a 3 μm particulate. The composition of the mobile phase was: 950 ml of water for HPLC, 20 ml of acetonitrile, 9 ml of triethylamine, 5.9 ml of phosphoric acid, 100 mg of Na EDTA and 1.5 g of heptanesulfonic acid.

For data set [5], the target named is T1, rat brain kynureninase. Put plainly: Kynureninase assay in the rat brain. To be noted: rat brain homogenate; read-out: IC50 Kyn-Ase. Format: biochemical.

Structures are written as SMILES. Structures can show the parent of a compound that is named as a salt.

T2 sequence (O88867 whole entry): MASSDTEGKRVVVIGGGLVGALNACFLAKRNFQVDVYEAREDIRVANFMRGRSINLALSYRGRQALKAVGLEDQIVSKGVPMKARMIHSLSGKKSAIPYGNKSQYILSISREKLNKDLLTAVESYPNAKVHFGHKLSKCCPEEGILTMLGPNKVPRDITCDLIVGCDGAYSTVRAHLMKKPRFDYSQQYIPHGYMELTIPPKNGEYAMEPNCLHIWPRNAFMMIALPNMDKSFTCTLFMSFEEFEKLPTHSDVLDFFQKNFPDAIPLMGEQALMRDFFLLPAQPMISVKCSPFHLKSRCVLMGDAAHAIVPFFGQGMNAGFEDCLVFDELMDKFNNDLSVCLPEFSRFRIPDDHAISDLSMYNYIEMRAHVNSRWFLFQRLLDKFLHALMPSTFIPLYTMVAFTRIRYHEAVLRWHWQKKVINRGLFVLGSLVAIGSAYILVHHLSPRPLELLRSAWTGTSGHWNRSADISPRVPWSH

By inhibition is commonly meant the relative decrease from the control value, in per cent. The IC50 is the point on the concentration scale where inhibition reaches its midpoint. As a reminder, the melting point is the temperature of the solid-liquid transition. For the molecule `NC(CC(=O)c1cccc(Cl)c1)C(=O)O` (racemic) [FCE 28752, (R,S)-2-amino-4-(3′-chlorophenyl)-4-oxo-butyric acid], the melting point is 198 to 200 °C (dec.). For the same molecule, the inhibition at 100 µM in data set [1] worked out at 60%. Also, in data set [2], the inhibition at 100 µM was 93% and the IC50 came out at 0.4 µM.

For `COc1ccccc1C(=O)CC(N)C(=O)O` (racemic) [FCE 27384, (R,S)-2-amino-4-(2′-methoxyphenyl)-4-oxo-butyric acid], the melting point was 115 °C (dec.). In data set [3], this molecule displayed an inhibition at 100 µM of 96% and an inhibition at 1000 µM of 97%. In data set [4] (100 μM), the inhibition at 100 µM was found to be 3%. In addition, the inhibition at 1000 µM in data set [4] (1 mM) is 30%. The inhibition at 100 µM in data set [1] is 86%. Besides, the inhibition at 100 µM in data set [2] was determined as 4%. For the same molecule, the IC50 in data set [5] turned out to be 6 µM.

`NC(CC(=O)c1ccc(Cl)c(Cl)c1)C(=O)O` (racemic) [FCE 28833, (R,S)-2-amino-4-(3′,4′-dichlorophenyl)-4-oxo-butyric acid]: in data set [2], the inhibition at 100 µM was 99% and the IC50 stood at 0.2 µM.

On to `COc1ccc(Cl)cc1C(=O)CC(N)C(=O)O` (racemic) (as salt: hydrochloride) [FCE 28836, (R,S)-2-amino-4-(2′-methoxy-5′-chlorophenyl-4-oxo-butyric acid], for which the melting point is 212 to 213 °C.

For `COc1ccccc1C(=O)C[C@H](N)C(=O)O` [FCE 28626, (S)-2-amino-4-(2′-methoxyphenyl)-4-oxo-butyric acid], the melting point is 130 °C (dec.).

For the molecule `N[C@H](CC(=O)c1cccc(C(F)(F)F)c1)C(=O)O` (racemic) [FCE 28680, (R,S)-2-amino-4-(3′-trifluoromethylphenyl)-4-oxo-butyric acid], the “% INHIBITION AT 100 μM Kyn-Ase” value in data set [1] was 67%. Further, the “% INHIBITION AT 100 μM Kyn-3-OH-Ase” value in data set [2] was determined as 17%.

As for `N[C@H](CC(=O)c1ccccc1)C(=O)O` [FCE 28469, (R)-2-amino-4-phenyl-4-oxo-butyric acid], in data set [1], the inhibition at 100 µM is 19%.

`NC(CC(=O)c1ccc(Cl)cc1)C(=O)O` (racemic) [FCE 28751, (R,S)-2-amino-4-(4′-chlorophenyl)-4-oxo-butyric acid] gave a melting point of 204 to 206 °C. Besides, the inhibition at 100 µM in data set [1] was 0%. Further, in data set [2], the inhibition at 100 µM worked out at 85% and the IC50 was found to be 7 µM.

As to `COc1ccc(C(=O)CC(N)C(=O)O)cc1` (racemic) [FCE 28628, (R,S)-2-amino-4-(4′-methoxyphenyl)-4-oxo-butyric acid], the melting point was 160 °C (dec.). Further, the inhibition at 100 µM in data set [1] came out at 17%. Also, in data set [2], the inhibition at 100 µM is 79% and the IC50 stood at 30 µM.

On to `COc1ccc(F)cc1C(=O)C[C@@H](N)C(=O)O` (racemic) [FCE 28766, (R,S)-2-amino-4-(2′-methoxy-5′-fluoropheryl)-4-oxo-butyric acid], for which the “% INHIBITION AT 100 μM Kyn-Ase” value in data set [1] was 81%. Moreover, in data set [2], the “% INHIBITION AT 100 μM Kyn-3-OH-Ase” value is given as 2%.

As to `NC(CC(=O)c1ccccc1)C(=O)O` (racemic) [FCE 27377, (R,S)-2-amino-4-phenyl-4-oxo-butyric acid], in data set [3], 100 µM produced 46% inhibition and the inhibition at 1000 µM amounted to 86%. Moreover, in data set [1], the inhibition at 100 µM came to 35.6%.

In the case of `Cc1ccccc1C(=O)CC(N)C(=O)O` (racemic) [FCE 28630, (R,S)-2-amino-4-(2′-methylphenyl)-4-oxo-butyric acid], the melting point was 192 to 193 °C (dec.). Also, in data set [1], the inhibition at 100 µM turned out to be 40%. In data set [2], the inhibition at 100 µM was 81% and the IC50 was determined as 23 µM.

For the molecule `N[C@H](CC(=O)c1ccccc1F)C(=O)O` (racemic) [FCE 28631, (R,S)-2-amino-4-(2′-fluorophenyl)-4-oxo-butyric acid], the “% INHIBITION AT 100 μM Kyn-Ase” value in data set [1] came out at 52%. Moreover, the “% INHIBITION AT 100 μM Kyn-3-OH-Ase” value in data set [2] came out at 47%.

For the molecule `COc1ccc(Cl)cc1C(=O)CC(N)C(=O)O` (racemic) [FCE 28836, (R,S)-2-amino-4-(2′-methoxy-5′-chlorophenyl-4-oxo-butyric acid], in data set [2], the inhibition at 100 µM was determined as 73% and the IC50 worked out at 33 µM.

Take `NC(CC(=O)c1cccc(F)c1)C(=O)O` (racemic) [FCE 28764, (R,S)-2-amino-4-(3′-fluorophenyl)-4-oxo-butyric acid]: the melting point was 194 to 195 °C (dec.). Further, the inhibition at 100 µM in data set [1] was found to be 0%. Also, in data set [2], the inhibition at 100 µM turned out to be 93% and the IC50 came out at 0.9 µM.

Consider `N[C@H](CC(=O)c1ccccc1Cl)C(=O)O` (racemic) [FCE 28753, (R,S)-2-amino-4-(2′-chloroohenyl)-4-oxo-butyric acid], for which the “% INHIBITION AT 100 μM Kyn-Ase” value in data set [1] is given as 71%. The “% INHIBITION AT 100 μM Kyn-3-OH-Ase” value in data set [2] is on record as 22%.

`COc1cccc(C(=O)C[C@@H](N)C(=O)O)c1` (racemic) [FCE 28629, (R,S)-2-amino-4-(3′-methoxyphenyl)-4-oxo-butyric acid]: the “% INHIBITION AT 100 μM Kyn-Ase” value in data set [1] is 54%. Besides, the “% INHIBITION AT 100 μM Kyn-3-OH-Ase” value in data set [2] turned out to be 29%.

In the case of `N[C@@H](CC(=O)c1ccccc1)C(=O)O` [FCE 28468, (S)-2-amino-4-phenyl-4-oxo-butyric acid], the inhibition at 100 µM in data set [1] stood at 61%.
